From DBAASP
In brackets after ≈: the same amount, converted by molar mass.

Key:
Test in all cases: ≥ marks a high value that may be exact or a test limit, other limits are often not marked, values filed in µg/mL are converted to µM
[1] = test system: Candida albicans C627
[2] = test system: Enterococcus faecium mic80
[3] = test system: Escherichia coli ESBL 63103
[4] = test system: Pseudomonas aeruginosa 213
[5] = test system: Pseudomonas aeruginosa H103
[6] = test system: Pseudomonas aeruginosa LES400
[7] = test system: Staphylococcus aureus ATCC 25923
[8] = test system: Staphylococcus aureus C623
[9] = test system: Bacillus subtilis CMCC 63501
[10] = test system: Candida albicans CA2761
[11] = test system: Candida albicans CGMCC 2.2086
[12] = test system: Candida krusei CGMCC 2.1857
[13] = test system: Candida tropicalis CGMCC 2.1975
[14] = test system: Enterococcus faecalis ATCC 29212
[15] = test system: Escherichia coli 078
[16] = test system: Escherichia coli ATCC 25922
[17] = test system: Escherichia coli EC183
[18] = test system: Escherichia coli K88
[19] = test system: Escherichia coli K99
[20] = test system: Escherichia coli UB1005
[21] = test system: Salmonella enterica subsp. enterica serovar Pullorum C79-13
[22] = test system: Salmonella enterica subsp. enterica serovar Typhimurium ATCC 14028
[23] = test system: Salmonella enterica subsp. enterica serovar Typhimurium C77-31
[24] = test system: Staphylococcus aureus ATCC 29213
[25] = test system: Staphylococcus epidermidis ATCC 12228
[26] = test system: Acinetobacter baumannii
[27] = test system: Candida albicans LABMIC 0107
[28] = test system: Candida krusei ATCC 6258
[29] = test system: Candida parapsilosis ATCC 22019
[30] = test system: Candida parapsilosis LABMIC 0113
[31] = test system: Candida tropicalis LABMIC 0109
[32] = test system: Candida tropicalis LABMIC 0112
[33] = test system: Enterococcus faecalis
[34] = test system: Escherichia coli KpC+001812446
[35] = test system: Escherichia coli
[36] = test system: Klebsiella pneumoniae ATCC 13883
[37] = test system: Klebsiella pneumoniae KpC+001825971
[38] = test system: Klebsiella pneumoniae
[39] = test system: Microsporum canis LABMIC 0401
[40] = test system: Papiliotrema laurentii LABMIC 0404
[41] = test system: Pseudomonas aeruginosa ATCC 27853
[42] = test system: Pseudomonas aeruginosa
[43] = test system: Staphylococcus aureus
[44] = test system: Streptococcus pyogenes
[45] = test system: Trichophyton rubrum LABMIC 0203
[46] = test system: Burkholderia cepacia ATCC 25416
[47] = test system: Candida glabrata ATCC 2001
[48] = test system: Candida tropicalis ATCC 20115
[49] = test system: Enterobacter cloacae ATCC 13047
[50] = test system: Escherichia coli DH5alpha
[51] = test system: Flavobacterium sp. PAMC 22217
[52] = test system: Lacinutrix algicola AKS293T
[53] = test system: Listeria monocytogenes ATCC 15313
[54] = test system: Pseudomonas aeruginosa ATCC 15442
[55] = test system: Psychrobacter sp. PAMC 21119
[56] = test system: Shigella sonnei ATCC 29930
[57] = test system: Staphylococcus aureus ATCC 33591
[58] = test system: Streptococcus pyogenes ATCC 19615

NCCCC[C@H](NC(=O)[C@@H](N)CCCN=C(N)N)C(=O)N[C@@H](CCCN=C(N)N)C(=O)N[C@@H](Cc1c[nH]c2ccccc12)C(=O)N[C@@H](Cc1c[nH]c2ccccc12)C(=O)N[C@@H](Cc1c[nH]c2ccccc12)C(=O)N[C@@H](Cc1c[nH]c2ccccc12)C(=O)N[C@@H](Cc1ccccc1)C(=O)N[C@@H](CCCN=C(N)N)C(=O)O [RKRWWWWFR]
MIC [1]: 5.31 µM (≈ 8 µg/mL) | MIC [2]: 5.31 µM (≈ 8 µg/mL) | MIC [3]: 5.31 µM (≈ 8 µg/mL) | MIC [4]: 5.31 µM (≈ 8 µg/mL) | MIC [5]: 1.33 µM (≈ 2 µg/mL) | MIC [6]: 21.2 µM (≈ 32 µg/mL) | MIC [7]: 2.65 µM (≈ 4 µg/mL) | MIC [8]: 1.33 µM (≈ 2 µg/mL)

CC[C@H](C)[C@H](NC(=O)[C@H](Cc1c[nH]c2ccccc12)NC(=O)[C@H](CCCCN)NC(=O)[C@H](CC(C)C)NC(=O)[C@@H](NC(=O)[C@H](CCCCN)NC(=O)CNC(=O)[C@@H](NC(=O)[C@H](CCCCN)NC(=O)[C@H](CCCCN)NC(=O)[C@H](CC(C)C)NC(=O)[C@@H](N)CCCN=C(N)N)[C@@H](C)CC)C(C)C)C(N)=O [RLKKIGKVLKWI]
MIC [9]: 2 µM (≈ 2.96 µg/mL) | MIC [10]: ≥ 128 µM | MIC [11]: ≥ 128 µM | MIC [12]: 16 µM (≈ 23.7 µg/mL) | MIC [13]: 8 µM (≈ 11.8 µg/mL) | MIC [14]: 64 µM (≈ 94.8 µg/mL) | MIC [15]: 16 µM (≈ 23.7 µg/mL) | MIC [16]: 8 µM (≈ 11.8 µg/mL) | MIC [17]: 2 µM (≈ 2.96 µg/mL) | MIC [18]: 4 µM (≈ 5.92 µg/mL) | MIC [19]: 4 µM (≈ 5.92 µg/mL) | MIC [20]: 16 µM (≈ 23.7 µg/mL) | MIC [21]: 4 µM (≈ 5.92 µg/mL) | MIC [22]: 16 µM (≈ 23.7 µg/mL) | MIC [23]: 8 µM (≈ 11.8 µg/mL) | MIC [7]: 128 µM (≈ 190 µg/mL) | MIC [24]: 64 µM (≈ 94.8 µg/mL) | MIC [25]: 64 µM (≈ 94.8 µg/mL)

CC[C@H](C)[C@H](NC(=O)[C@H](CCCCN)NC(=O)[C@H](CCCCN)NC(=O)[C@H](CC(C)C)NC(=O)[C@H](CCCN=C(N)N)NC(=O)[C@H](CCCCN)NC(=O)[C@@H](N)CCCCN)C(=O)N[C@@H](Cc1ccccc1)C(=O)N[C@@H](CCCCN)C(=O)N[C@@H](CCCCN)C(=O)N1CCC[C@H]1C(=O)N[C@@H](CCSC)C(=O)N[C@H](C(=O)N[C@H](C(=O)NCC(=O)N[C@H](C(=O)N[C@H](C(=O)N[C@H](C(=O)N1CCC[C@H]1C(=O)N[C@@H](Cc1ccccc1)C(N)=O)[C@@H](C)CC)[C@@H](C)O)C(C)C)[C@@H](C)CC)C(C)C [KKRLKKIFKKPMVIGVTIPF]
MIC [26]: 1.69 µM (≈ 4 µg/mL) | MIC [27]: 9.99 µM (≈ 23.7 µg/mL) | MIC [28]: 5 µM (≈ 11.8 µg/mL) | MIC [29]: ≥ 40 µM | MIC [30]: 5 µM (≈ 11.8 µg/mL) | MIC [31]: 9.99 µM (≈ 23.7 µg/mL) | MIC [32]: 5 µM (≈ 11.8 µg/mL) | MIC [14]: > 54 µM | MIC [33]: ≥ 54 µM | MIC [34]: 0.843 µM (≈ 2 µg/mL) | MIC [35]: 3.37 µM (≈ 8 µg/mL) | MIC [36]: 0.843 µM (≈ 2 µg/mL) | MIC [37]: 3.37 µM (≈ 8 µg/mL) | MIC [38]: 3.37 µM (≈ 8 µg/mL) | MIC [39]: ≥ 40 µM | MIC [40]: 5 µM (≈ 11.8 µg/mL) | MIC [41]: 27 µM (≈ 64 µg/mL) | MIC [42]: 27 µM (≈ 64 µg/mL) | MIC [7]: 6.75 µM (≈ 16 µg/mL) | MIC [24]: > 54 µM | MIC [43]: > 54 µM | MIC [44]: 3.37 µM (≈ 8 µg/mL) | MIC [45]: ≥ 40 µM

CC[C@H](C)[C@H](NC(=O)CNC(=O)[C@H](CCCN=C(N)N)NC(=O)[C@H](Cc1ccccc1)NC(=O)[C@H](CC(C)C)NC(=O)[C@H](Cc1cnc[nH]1)NC(=O)CNC(=O)[C@H](Cc1ccccc1)NC(=O)[C@@H](N)Cc1ccccc1)C(=O)N[C@H](C(=O)N[C@@H](CC(N)=O)C(=O)N[C@H](C(=O)NCC(=O)N[C@@H](CCCCN)C(=O)N[C@@H](Cc1cnc[nH]1)C(=O)N[C@H](C(=O)N[C@@H](Cc1cnc[nH]1)C(=O)NCC(=O)N[C@@H](CC(C)C)C(=O)N[C@@H](CC(C)C)C(=O)N[C@@H](CO)C(=O)NCC(N)=O)[C@@H](C)CC)C(C)C)[C@@H](C)CC [FFGHLFRGIINVGKHIHGLLSG]
MIC [46]: ≥ 50 µM | MIC [47]: ≥ 50 µM | MIC [48]: 5 µM (≈ 12.1 µg/mL) | MIC [49]: 25 µM (≈ 60.5 µg/mL) | MIC [14]: 25 µM (≈ 60.5 µg/mL) | MIC [50]: 5 µM (≈ 12.1 µg/mL) | MIC [51]: 1.5 µM (≈ 3.63 µg/mL) | MIC [52]: 1.25 µM (≈ 3.02 µg/mL) | MIC [53]: 5 µM (≈ 12.1 µg/mL) | MIC [54]: ≥ 50 µM | MIC [55]: 1.25 µM (≈ 3.02 µg/mL) | MIC [56]: 5 µM (≈ 12.1 µg/mL) | MIC [57]: 5 µM (≈ 12.1 µg/mL) | MIC [58]: 2.5 µM (≈ 6.05 µg/mL)
